In patent US9062050B2, “Inhibitor of JAK1 and JAK2” (Eli Lilly and Company, priority 2012, dated 2015):

Target: T1, JAK3 (Homo sapiens, UniProt P52333)
T1 sequence (P52333 1-1124): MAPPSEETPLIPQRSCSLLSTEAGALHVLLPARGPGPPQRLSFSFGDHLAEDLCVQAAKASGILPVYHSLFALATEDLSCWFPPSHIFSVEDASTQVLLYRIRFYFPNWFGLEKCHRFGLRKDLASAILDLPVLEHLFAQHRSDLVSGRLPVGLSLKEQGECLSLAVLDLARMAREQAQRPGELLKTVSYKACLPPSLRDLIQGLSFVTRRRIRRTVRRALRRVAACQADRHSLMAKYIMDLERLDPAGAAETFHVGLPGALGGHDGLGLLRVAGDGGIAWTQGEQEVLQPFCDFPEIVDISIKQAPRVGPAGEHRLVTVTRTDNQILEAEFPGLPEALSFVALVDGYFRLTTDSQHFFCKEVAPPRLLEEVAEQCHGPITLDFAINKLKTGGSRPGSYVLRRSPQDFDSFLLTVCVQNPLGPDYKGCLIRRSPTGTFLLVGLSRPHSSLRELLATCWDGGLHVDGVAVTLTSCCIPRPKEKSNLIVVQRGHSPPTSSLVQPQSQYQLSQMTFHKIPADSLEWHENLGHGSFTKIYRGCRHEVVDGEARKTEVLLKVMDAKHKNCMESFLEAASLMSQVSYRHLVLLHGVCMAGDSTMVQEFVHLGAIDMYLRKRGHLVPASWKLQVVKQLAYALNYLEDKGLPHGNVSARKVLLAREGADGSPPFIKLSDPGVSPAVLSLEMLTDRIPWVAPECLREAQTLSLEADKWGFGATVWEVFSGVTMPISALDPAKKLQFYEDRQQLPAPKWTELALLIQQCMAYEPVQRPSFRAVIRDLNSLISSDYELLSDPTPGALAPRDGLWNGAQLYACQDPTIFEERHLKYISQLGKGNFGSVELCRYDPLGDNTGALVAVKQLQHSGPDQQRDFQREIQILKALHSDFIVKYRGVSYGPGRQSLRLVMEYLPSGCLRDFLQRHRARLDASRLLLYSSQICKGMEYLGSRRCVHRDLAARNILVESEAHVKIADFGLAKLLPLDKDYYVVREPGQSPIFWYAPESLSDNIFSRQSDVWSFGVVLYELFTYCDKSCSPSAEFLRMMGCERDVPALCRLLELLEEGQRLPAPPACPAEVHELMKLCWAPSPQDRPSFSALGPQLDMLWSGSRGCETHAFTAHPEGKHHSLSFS
Test: JAK3 IL-2-NK-92/pSTAT5 cell-based assay (Cellomics ArrayScan HCS)
Design: host or cells: NK-92 (natural killer) cells
From the text: IL-2 activates the JAK3 pathway in natural killer (NK) cells to drive the NK and CD8 lymphocyte proliferation. Therefore, IL-2 stimulated NK92/pSTAT5 cell-based assay enables the evaluation of the JAK3 cellular activity of JAK compounds in vitro.
NK-92 (natural killer) cells (ATCC, Manassas, Va.) are maintained in minimum essential medium (MEM) Alpha with 15% fetal bovine serum, 15% Horse Serum and 1× antibiotic/antimycotic (Invitrogen, Carlsbad, Calif.). The medium is supplemented with IL-2 (R&D systems, Minneapolis, Minn.) for a final concentration of 4 ng/mL. Cells are kept at 37° C. with 5% CO2. Cells are starved in serum free medium to remove endogenous growth factors. NK-92 cells are counted and collected to seed 2×10^7 cells per 96-well plate at a density of 2×10^5 cells per well. The cells are rinsed twice with unsupplemented MEM Alpha (MEM Alpha) before suspending cells at a final concentration of 8×10^5 cells/mL in MEM Alpha with 0.6% serum (0.3% FBS, 0.3% horse serum). The diluted cells are added back to tissue culture flasks and incubated overnight at 37° C. Test compound is prepared in 100% DMSO at 10 mM concentration. […] An aliquot of 200 μL of 1 to 10 dilution of Mouse anti-pSTAT5 (pY694) Alexa Fluor 647® in fluorescence activated cell sorting (FACS) buffer is added to the cells. […] Mean fluorescent intensity data are collected and analyzed using Cellomics Arrayscan® VTi. […]

Which IC50 (NK-92 cells, IL-2 at 0.5 ng/mL, relative IC50, n=61, read-out: IC50, inhibits JAK3 (pSTAT5)) does the source give for `Cc1cc(Nc2ccc3ncn([C@@H]4CCc5ccc(F)cc54)c3n2)[nH]n1.Cl.Cl` [Example 1, 3-[(1R)-6-fluoro-2,3-dihydro-1H-inden-1-yl]-N-(3-methyl-1H-pyrazol-5-yl)-3H-imidazo[4,5-b]pyridin-5-amine dihydrochloride] here?
The IC50 was 228 nM.

What about the “ratio of JAK3/JAK2 IC50” value (from the two cell-based assays (EPO-TF1/pSTAT5 and IL-2-NK-92/pSTAT5)) of the same compound?
Its value is “more than six-fold”.
